Molecules are shown by their SMILES. Like-named read-outs stand apart in the source and are kept apart here.

Data on 30 compounds can be found in patent US11104657B2, “Notch inhibitors for use in the treatment of t-cell acute lymphoblastic leukemia” (UNIVERSITÀ DEGLI STUDI DI ROMA “LA SAPIENZA”, priority 2016, dated 2021).

In one assay the test system is DND41 cells. Briefly: MTS cell proliferation assay (IG50), DND41. It is filed as cell-based, human. The note with it: for effect on cell proliferation: doses of up to 50 μM. Here is the method: In order to evaluate the biological implications of the compounds, their effect on cell proliferation/vitality was tested by determining the relative concentrations of growth inhibition (IG50) by means of the MTS cellular assay.
The cell lines DND41 (ACC 525, DSMZ, Braunschweig, GERMANY), KOPTK1 (RRID: CVCL_4965) were maintained in culture in RPMI-1640 (Gibco, Carlsbad, Calif., USA) with 10% fetal bovine serum. TALL-1 cells (ACC-521: DSMZ, Braunschweig, GERMANY) were cultured in RPMI-1640 (Gibco, Carlsbad, Calif., USA) supplemented with 20% fetal bovine serum, while HaCaT cells (ACC-771: DSMZ, Braunschweig, GERMANY) were maintained in Eagle's culture medium according to Dulbecco (Gibco, Carlsbad, Calif., USA) containing 10% fetal bovine serum. Cells were treated with the naturally-occurring compounds A-H or with compounds 1-17 for times and concentrations indicated in the text.
Cells were seeded in 96-well plates with a density of 5×10^5 cells/ml (5×10^4 cells per well) and treated for the times and the concentrations of the various compounds, as indicated in the text.
All treatments were carried out in triplicate, including control treatments. All treatment reactions contained a final concentration of 1% DMSO (D5879; Sigma-Aldrich, St Louis, Mo., USA). To quantify vitality, cells were assayed by the MTS CellTiter 96® AQueous One Solution Cell Proliferation Assay (G3580; Promega, Madison, Wis., USA). Absorbance was detected at 490 nm using the GloMax Multidetection System instrument (Promega, Madison, Wis., USA). Data were collected in the form of absorbance units (ABSs) and standardized to obtain the proliferation rate (MTS) through the equation: % cell proliferation=(ABScell culture+compound−ABSculture medium+compound/(ABScell culture+DMSO−ABSculture medium+DMSO)×100.
The 50% inhibition concentration was calculated using the GraphPad Prism software program (GraphPad Software Inc., La Jolla, Calif., USA).

Assay [1] concerns Notch signaling (N1VAL, N3ICD) in DND41 cells. Briefly: Western blot of N1VAL and N3ICD expression in DND41 cells. It is filed as cell-based, human. As to conditions: DND41 cells, 36 hours, Western blot; for effect on the expression of N1VAL: 0-50 μM. Here is the method: In order to identify new naturally-occurring molecular agents able to modulate Notch signaling, the effects on protein expression of the activated domain of Notch1 (N1VAL), and of the intracellular domain of Notch3 (N3ICD), were evaluated in DND41 cells through
Western blotting assays, following treatment for 36 hours with increasing concentrations (0, 1, 5, 10, 20, 50 μM) of the eight molecules (A-H) previously selected. Functional biochemical screening was performed on T-ALL DND41 cells because they are notoriously sensitive to the block of Notch signaling, and characterized by the constitutive and ligand-independent activation of the Notch1 pathway and by the high expression of Notch3. This makes this cell line a useful experimental model for screening putative Notch inhibitors.
In order to investigate the activity and selectivity of action of the 12 synthetic derivatives of butein, and following the screening scheme described in the first design phase, the efficacy of these molecules was analyzed by verifying the effects of 36 hours of treatment at increasing doses on the activation of Notch signaling and on the proliferation in DND41 cells.
Laemmli Sample Buffer (161-0737; Bio-Rad Laboratories Inc., Hercules, Calif., USA) was added to each cell pellet. Cells were lysed by ultrasonic sonication and to each mixture 5% 2-mercaptoethanol (161-0710; Bio-Rad Laboratories Inc., Hercules, Calif., USA) was added. Samples were denatured at 100° C. for 5 min and protein mixtures were separated by means of Sodium Dodecyl Sulphate-Polyacrylamide Gel Electrophoresis using 8% acrylamide and transferred onto nitrocellulose membranes. After transfer, the membranes pre-saturated in 5% Blot Dry Fat Milk (1706404; Bio-Rad Laboratories Inc., Hercules, Calif., USA) were incubated for 16 hours at +4° C. with the following primary antibodies diluted at 1:1000 in 5% Dry Fat Milk (1706404; Bio-Rad Laboratories Inc., Hercules, Calif., USA): Notch1Val1744 (2421; Cell Signaling Technology, Beverly, Mass., USA), Notch3 (2889; Cell Signaling Technology, Beverly, Mass., USA) and β-actin (sc-47778; Santa Cruz Biotechnology, Santa Cruz, Calif., USA). Subsequently, filters were incubated for 1 hour at room temperature with the following secondary antibodies: anti-rabbit (sc-2004, Santa Cruz Biotechnology, Santa Cruz, Calif., USA) or anti-mouse (sc-2005, Santa Cruz Biotechnology, Santa Cruz, Calif., USA). Chemiluminescence signal detection was performed using the ECL Advanced Detection System substrate (RPN2135; E Healthcare UK Limited, Buckinghamshire, UK).
A general note: Immunoblotting shows a protein as a band on a membrane.

Where [2] appears, read: Homo sapiens, 36-hour treatments in DND41 cells, mean of triplicate experiments ± S.D., Table 1, read-out: IG50 S.D.
Setting [3] is: Homo sapiens, DND41 cells, MTS assay, 36 hours of treatment, read-out: IG50 (growth inhibition).
[4] abbreviates: Homo sapiens, 36-hour treatments in DND41 cells, mean of triplicate experiments ± S.D., Table 2, read-out: IG50 ± S.D.

As for `COc1c2occc2cc2ccc(=O)oc12` [Compound D, 9-methoxyfuran[3,2-g]chromen-7-one, reference compound], the “effect on cell proliferation” value in the assay on DND41 cells (DND41 cells) is recorded as “do not significantly affect cell proliferation”. For the same compound, the IC50 in the assay on DND41 cells (setting [2]) is more than 50 µM. Moreover, the “effect on the expression of N1VAL” value in assay [1] is given as “did not significantly modulate”.
As to `O=C(/C=C/c1ccc(O)c(O)c1)c1ccc(O)cc1O` [Compound C, (E)-1-(2,4-dihydroxyphenyl)-3-(3,4-dihydroxyphenyl)prop-2-en-1-one, reference compound], the IC50 with DND41 cells (setting [2]) stood at 7.79 µM; with DND41 cells (setting [3]), 7.79 ± 1.73 µM.
Regarding `CC(=O)C1=C(O)[C@]2(C)C(=CC1=O)Oc1c(C(C)=O)c(O)c(C)c(O)c12` [Compound G, 2,6-diacetyl-7,9-dihydroxy-8,9b-dimethyldibenzofuran-1,3-dione, reference compound], in the assay on DND41 cells (DND41 cells), the “effect on cell proliferation” value is “do not significantly affect cell proliferation”. The IC50 with DND41 cells (Homo sapiens, DND41, 36 h, read-out: IG50 S.D.) was more than 50 µM. Moreover, the “effect on the expression of N1VAL” value in assay [1] is recorded as “did not significantly modulate”.
Regarding `COc1ccc(C(=O)/C=C/c2ccc(O)c(OC)c2)c(O)c1` [Compound 7, 2′,4-dihydroxy-3,4′-dimethoxychalcone], the IC50 in the assay on DND41 cells (setting [4]) turned out to be 33.1 ± 1.89 µM.
As for `COc1ccc(C(=O)/C=C/c2ccc(O)cc2)c(OC)c1` [Compound 16, 4-hydroxy-2′,4′-dimethoxychalcone], the IC50 in the assay on DND41 cells (setting [4]) was 13.8 ± 0.61 µM; with DND41 cells (setting [3]), more than 13 µM. For the same compound, the “concentration at which expression of N1VAL and N3ICD is decreased” value in assay [1] was 2.5 µM.
As to `COc1ccc2oc3cccc(O)c3c(=O)c2c1` [Compound F, 1-hydroxy-7-methoxy-9H-xanthen-9-one, reference compound], the “effect on cell proliferation” value in the assay with DND41 cells (DND41 cells) is “do not significantly affect cell proliferation”. Moreover, the IC50 in the assay on DND41 cells (setting [2]) was more than 50 µM. Besides, in assay [1], the “effect on the expression of N1VAL” value is “did not significantly modulate”.
As to `COc1ccc(C(=O)/C=C/c2ccc(OC3CCCCO3)cc2)cc1` (centres unmarked) [Compound 17a, 4′-methoxy-4-(tetrahydropyran-2-yloxy)chalcone], the IC50 in the assay with DND41 cells (setting [4]) is 28.8 ± 0.29 µM.
Consider `COc1ccc(C(=O)/C=C/c2ccccc2)c(O)c1` [Compound 9, 2′-hydroxy-4′-methoxychalcone], for which the IC50 in the assay on DND41 cells (setting [4]) stood at 11.1 ± 0.59 µM.
In the case of `COc1ccc(C(=O)/C=C/c2ccc(OC3CCCCO3)cc2)c(O)c1` (centres unmarked) [Compound 8a, 2′-hydroxy-4′-methoxy-4-(tetrahydropyran-2-yloxy)chalcone], in the assay with DND41 cells (setting [4]), the IC50 amounted to 48.5 ± 3.42 µM.
Same read-out and setting: under `COc1ccc(/C=C/C(=O)c2ccc(OC)cc2OC)cc1` [Compound 4, 2′,4,4′-trimethoxychalcone] stands 14.4 ± 2.56 µM.
As to `O=c1c(O)c(-c2ccccc2)oc2cc(O)cc(O)c12` [Compound H, 3,5,7-trihydroxy-2-phenylchromen-4-one, reference compound], the values for the IC50 in the assay on DND41 cells (setting [2]) and in the assay on DND41 cells (setting [3]) were 22.6 µM and 22.6 ± 1.89 µM, respectively.
For `COc1ccc(C(=O)/C=C/c2cccc(OC3CCCCO3)c2)c(O)c1` (centres unmarked) [Compound 11a, 2′-hydroxy-4′-methoxy-3-(tetrahydropyran-2-yloxy)chalcone], the IC50 in the assay on DND41 cells (setting [4]) is 17.4 ± 1.2 µM.
Take `COc1ccc(C(=O)/C=C/c2ccc(OC)c(OC3CCCCO3)c2)c(O)c1` (centres unmarked) [Compound 5a, 2′-hydroxy-4,4′-dimethoxy-3-(tetrahydropyran-2-yloxy) chalcone]: the IC50 with DND41 cells (setting [4]) is more than 50 µM.
Regarding `COc1ccc(C(=O)/C=C/c2cccc(O)c2)c(O)c1` [Compound 11, 2′,3-dihydroxy-4′-methoxychalcone], the IC50 with DND41 cells (setting [4]) was 13.6 ± 1.76 µM.
The same measure, in the same setting: under `COc1ccc(C(=O)/C=C/c2ccc(OC)c(OC)c2)c(OC)c1` [Compound 1, 2′,3,4,4′-tetramethoxychalcone] stands 15 ± 3.04 µM; under `COc1ccc(C(=O)/C=C/c2ccc(OC)c(O)c2)c(O)c1` [Compound 5, 2′,3-dihydroxy-4,4′-dimethoxychalcone], 36.2 ± 10.6 µM.
`O=C1c2c(O)cc(O)cc2O[C@H](c2ccc(O)c(O)c2)[C@H]1O` [Compound A, (2R,3R)-2-(3,4-dihydroxyphenyl)-3,5,7-trihydroxy-2,3-dihydrochromen-4-one, reference compound]: in the assay on DND41 cells (DND41 cells), the “effect on cell proliferation” value was “do not significantly affect cell proliferation”. Moreover, the IC50 with DND41 cells (setting [2]) is more than 50 µM.
In the case of `COc1ccc(C(=O)/C=C/c2ccc(OC)c(OC)c2)c(O)c1` [Compound 2, 2′-hydroxy-3,4,4′-trimethoxychalcone], in the assay on DND41 cells (setting [4]), the IC50 is 31 ± 5.98 µM.
As to `COc1ccc(C(=O)CCc2ccc(O)cc2)c(O)c1` [Compound 8b, 2′,4-dihydroxy-4′-methoxydihydrochalcone], the IC50 in the assay with DND41 cells (36-hour treatments in DND41 cells, mean of triplicate experiments ± S.D., Table 2, read-out: IG50 ± S.D.) was more than 50 µM.
On to `COc1ccc(/C=C/C(=O)c2ccc(OC)cc2O)cc1` [Compound 3, 2′-hydroxy-4,4′-dimethoxychalcone], for which the IC50 in the assay with DND41 cells (setting [4]) amounted to 47.5 ± 1.14 µM.
For the compound `O=C(/C=C/c1ccc(OC2CCCCO2)cc1)c1ccccc1O` (centres unmarked) [Compound 14a, 2′-hydroxy-4-(tetrahydropyran-2-yloxy)chalcone], the IC50 in the assay with DND41 cells (setting [4]) was found to be 48.6 ± 3.42 µM.
For the compound `COc1cccc(/C=C/C(=O)c2ccc(OC)cc2O)c1` [Compound 10, 2′-hydroxy-3,4′-dimethoxychalcone], in the assay with DND41 cells (setting [4]), the IC50 is 21.3 ± 1.72 µM.
Take `COc1ccc(C(=O)/C=C/c2ccccc2OC)c(O)c1` [Compound 13, 2′-hydroxy-2,4′-dimethoxychalcone]: the IC50 with DND41 cells (setting [4]) came to 21.8 ± 1.78 µM.
In the case of `O=C(/C=C/c1ccc(O)cc1)c1ccccc1O` [Compound 14, 2′,4-dihydroxychalcone], the IC50 with DND41 cells (setting [4]) was 16.5 ± 0.9 µM.
The same measure, in the same setting: in the case of `COc1ccc(C(=O)/C=C/c2ccc(OC3CCCCO3)cc2)c(OC)c1` (centres unmarked) [Compound 16a, 2′,4′-dimethoxy-4-(tetrahydropyran-2-yloxy)chalcone] it was 32.6 ± 0.92 µM; in that of `COc1ccc(C(=O)/C=C/c2ccccc2O)c(O)c1` [Compound 12, 2,2′-dihydroxy-4′-methoxychalcone], 14.2 ± 0.58 µM.
For `COc1ccc(C(=O)/C=C/c2ccc(OC3CCCCO3)c(OC)c2)c(O)c1` (centres unmarked) [Compound 7a, 2′-hydroxy-3,4′-dimethoxy-4-(tetrahydropyran-2-yloxy)chalcone], the IC50 in the assay on DND41 cells (setting [4]) was determined as 24.4 ± 1.76 µM.
Consider `COc1ccccc1C(=O)/C=C/c1ccc(O)cc1` [Compound 15, 4-hydroxy-2′-methoxychalcone], for which, in the assay on DND41 cells (setting [4]), the IC50 worked out at 16.8 ± 2.71 µM.
In the case of `COc1ccccc1C(=O)/C=C/c1ccc(OC2CCCCO2)cc1` (centres unmarked) [Compound 15a, 2′-methoxy-4-(tetrahydropyran-2-yloxy)chalcone], the IC50 with DND41 cells (setting [4]) worked out at 31.5 ± 1.46 µM.
On to `COc1ccc(/C=C/C(=O)c2ccc(OC3CCCCO3)cc2O)cc1OC` (centres unmarked) [Compound 6a, 2′-hydroxy-3,4-dimethoxy-4′-(tetrahydropyran-2-yloxy)chalcone], for which, in the assay on DND41 cells (setting [4]), the IC50 was more than 50 µM.
